The values that follow are results of earlier work, collected in patent US20090047371A1, “PHARMACEUTICAL COMPOSITION COMPRISING CURCUMIN AND RESVERATROL AND USES THEREOF IN MEDICAL FIELD” (SAFI INVESTMENT HOLDING AG, priority 2005, published 2009).

Each structure is given as a SMILES string.

The test system of this series is hair loss. The note with it: many cases in India and in Europe where Curcumin has been employed.

With `COc1cc(/C=C/C(=O)CC(=O)/C=C/c2ccc(O)c(OC)c2)ccc1O` [Curcumin, curcumin], the effect on hair entry is “any effect on hair has never been reported”.
